{"source": "patent US20070281992A1", "about": "“COMBINATION OF GYRASE B INHIBITORS AND PROTEIN SYNTHESIS INHIBITORS AND USES THEREOF” (priority 2006, published 2007)", "assay_type_in_all_cases": "cell-based", "key": {"[1]": {"tested_on": "Linezolid-Resistant Staphylococcus aureus Isolates", "test": "MIC assay (NCCLS broth dilution), LRSA isolates", "settings": "Staphylococcus aureus; for MIC: read-out: Minimal Inhibitory Concentration", "outline": "(§1)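 Broth microdilution MICs determined per NCCLS M7-A6 in Mueller Hinton II broth over 11 two-fold dilutions. Novobiocin/tetracycline and novobiocin/minocycline combinations tested at a 2.5:1 ratio. Vancomycin served as control agent; S. aureus ATCC 29213 and E. faecalis ATCC 29212 were QC strains.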"}, "[2]": {"tested_on": "Vancomycin-intermediate Staphylococcus epidermidis Isolates", "test": "MIC assay (NCCLS broth dilution), VISE isolates", "settings": "Staphylococcus epidermidis; for MIC: read-out: Minimal Inhibitory Concentration", "outline": "as §1"}, "[3]": {"tested_on": "Unconfirmed Vancomycin-intermediate Staphylococcus aureus Isolates", "test": "MIC assay (NCCLS broth dilution), unconfirmed VISA isolates", "settings": "Staphylococcus aureus; for MIC: read-out: Minimal Inhibitory Concentration", "outline": "as §1"}, "[4]": {"tested_on": "Methicillin-Susceptible Staphylococcus aureus Isolates", "test": "MIC assay (NCCLS broth dilution), MSSA clinical isolates", "settings": "Staphylococcus aureus; for MIC: read-out: Minimal Inhibitory Concentration", "outline": "as §1"}, "[5]": {"tested_on": "Vancomycin-intermediate Staphylococcus aureus Isolates", "test": "MIC assay (NCCLS broth dilution), VISA isolates", "settings": "for MIC: read-out: Minimal Inhibitory Concentration", "outline": "as §1"}, "[6]": {"tested_on": "Unconfirmed Vancomycin-intermediate Staphylococcus epidermidis Isolates", "test": "MIC assay (NCCLS broth dilution), unconfirmed VISE isolates", "settings": "for MIC: read-out: Minimal Inhibitory Concentration", "outline": "as §1"}, "[7]": {"settings": "52 MSSA isolates, combinations at 2.5:1, given as NB/partner"}}, "note": "Like-named read-outs stand apart in the source and are kept apart here.", "data": [{"smiles": "CN(C)[C@@H]1C(O)=C(C(N)=O)C(=O)[C@@]2(O)C(O)=C3C(=O)c4c(O)cccc4[C@@](C)(O)[C@H]3C[C@@H]12", "note": "[TE, tetracycline]", "values": [{"measurement": "MIC", "setting": "[1]; LRSA isolate 1651, 24FEB06", "value": 0.5, "unit": "mg/L"}, {"measurement": "MIC", "setting": "[1]; LRSA isolate 1652, 24FEB06", "value": 0.5, "unit": "mg/L"}, {"measurement": "MIC", "setting": "[1]; LRSA isolate 1725, 24FEB06", "value": "> 16", "unit": "mg/L"}, {"measurement": "MIC50", "setting": "[1]; 3 LRSA isolates, combinations at 2.5:1", "value": 0.5, "unit": "mg/L"}, {"measurement": "MIC", "setting": "[2]; VISE isolate 2020, 09MAR06", "value": "> 16", "unit": "mg/L"}, {"measurement": "MIC", "setting": "[2]; VISE isolate 2021, 09MAR06", "value": 0.25, "unit": "mg/L"}, {"measurement": "MIC", "setting": "[2]; VISE isolate 2022, 03MAR06", "value": 2, "unit": "mg/L"}, {"measurement": "MIC", "setting": "[2]; VISE isolate 2023, 03MAR06", "value": 0.5, "unit": "mg/L"}, {"measurement": "MIC50", "setting": "[2]; 4 VISE isolates, combinations at 2.5:1", "value": 0.5, "unit": "mg/L"}, {"measurement": "MIC", "setting": "[3]; Unconfirmed VISA isolate 2013, 03MAR06", "value": 0.5, "unit": "mg/L"}, {"measurement": "MIC", "setting": "[3]; Unconfirmed VISA isolate 2014, 03MAR06", "value": "> 16", "unit": "mg/L"}, {"measurement": "MIC", "setting": "[3]; Unconfirmed VISA isolate 2015, 03MAR06", "value": 0.06, "unit": "mg/L"}, {"measurement": "MIC", "setting": "[3]; Unconfirmed VISA isolate 2016, 03MAR06", "value": 0.5, "unit": "mg/L"}, {"measurement": "MIC", "setting": "[3]; Unconfirmed VISA isolate 2017, 03MAR06", "value": 0.25, "unit": "mg/L"}, {"measurement": "MIC", "setting": "[3]; Unconfirmed VISA isolate 2019, 03MAR06", "value": "> 16", "unit": "mg/L"}, {"measurement": "MIC50", "setting": "[3]; 6 unconfirmed VISA isolates (vancomycin MIC 4 ug/ml), combinations at 2.5:1", "value": 0.5, "unit": "mg/L"}, {"measurement": "MIC", "setting": "[4]; MSSA isolate 133, 03MAR06", "value": 0.5, "unit": "mg/L"}, {"measurement": "MIC", "setting": "[4]; MSSA isolate 134, 03MAR06", "value": 0.5, "unit": "mg/L"}, {"measurement": "MIC", "setting": "[4]; MSSA isolate 135, 03MAR06", "value": 0.5, "unit": "mg/L"}, {"measurement": "MIC", "setting": "[4]; MSSA isolate 753, 22FEB06", "value": 0.5, "unit": "mg/L"}, {"measurement": "MIC", "setting": "[4]; MSSA isolate 754, 22FEB06", "value": 0.5, "unit": "mg/L"}, {"measurement": "MIC", "setting": "[4]; MSSA isolate 754, 24FEB06", "value": 0.5, "unit": "mg/L"}, {"measurement": "MIC", "setting": "[4]; MSSA isolate 755, 22FEB06", "value": 0.5, "unit": "mg/L"}, {"measurement": "MIC", "setting": "[4]; MSSA isolate 756, 03MAR06", "value": 0.5, "unit": "mg/L"}, {"measurement": "MIC", "setting": "[4]; MSSA isolate 779, 22FEB06", "value": 0.5, "unit": "mg/L"}, {"measurement": "MIC", "setting": "[4]; MSSA isolate 780, 03MAR06", "value": 0.5, "unit": "mg/L"}, {"measurement": "MIC", "setting": "[4]; MSSA isolate 781, 03MAR06", "value": 0.5, "unit": "mg/L"}, {"measurement": "MIC", "setting": "[4]; MSSA isolate 782, 22FEB06", "value": 1, "unit": "mg/L"}, {"measurement": "MIC", "setting": "[4]; MSSA isolate 783, 22FEB06", "value": 0.5, "unit": "mg/L"}, {"measurement": "MIC", "setting": "[4]; MSSA isolate 784, 22FEB06", "value": 16, "unit": "mg/L"}, {"measurement": "MIC", "setting": "[4]; MSSA isolate 785, 22FEB06", "value": 0.5, "unit": "mg/L"}, {"measurement": "MIC", "setting": "[4]; MSSA isolate 786, 22FEB06", "value": 0.5, "unit": "mg/L"}, {"measurement": "MIC", "setting": "[4]; MSSA isolate 787, 22FEB06", "value": 0.5, "unit": "mg/L"}, {"measurement": "MIC", "setting": "[4]; MSSA isolate 788, 22FEB06", "value": 0.5, "unit": "mg/L"}, {"measurement": "MIC", "setting": "[4]; MSSA isolate 789, 24FEB06", "value": 0.5, "unit": "mg/L"}, {"measurement": "MIC", "setting": "[4]; MSSA isolate 790, 24FEB06", "value": 0.5, "unit": "mg/L"}, {"measurement": "MIC", "setting": "[4]; MSSA isolate 791, 24FEB06", "value": 0.5, "unit": "mg/L"}, {"measurement": "MIC", "setting": "[4]; MSSA isolate 792, 03MAR06", "value": 0.5, "unit": "mg/L"}, {"measurement": "MIC", "setting": "[4]; MSSA isolate 793, 24FEB06", "value": 0.5, "unit": "mg/L"}, {"measurement": "MIC", "setting": "[4]; MSSA isolate 794, 24FEB06", "value": 0.5, "unit": "mg/L"}, {"measurement": "MIC", "setting": "[4]; MSSA isolate 994, 22FEB06", "value": 0.5, "unit": "mg/L"}, {"measurement": "MIC", "setting": "[4]; MSSA isolate 995, 03MAR06", "value": 0.5, "unit": "mg/L"}, {"measurement": "MIC", "setting": "[4]; MSSA isolate 996, 22FEB06", "value": 0.5, "unit": "mg/L"}, {"measurement": "MIC", "setting": "[4]; MSSA isolate 997, 22FEB06", "value": 0.5, "unit": "mg/L"}, {"measurement": "MIC", "setting": "[4]; MSSA isolate 998, 03MAR06", "value": 0.5, "unit": "mg/L"}, {"measurement": "MIC", "setting": "[4]; MSSA isolate 999, 22FEB06", "value": "> 16", "unit": "mg/L"}, {"measurement": "MIC", "setting": "[4]; MSSA isolate 1000, 24FEB06", "value": 0.5, "unit": "mg/L"}, {"measurement": "MIC", "setting": "[4]; MSSA isolate 1001, 24FEB06", "value": 0.5, "unit": "mg/L"}, {"measurement": "MIC", "setting": "[4]; MSSA isolate 1002, 24FEB06", "value": 0.5, "unit": "mg/L"}, {"measurement": "MIC", "setting": "[4]; MSSA isolate 1003, 03MAR06", "value": 0.5, "unit": "mg/L"}, {"measurement": "MIC", "setting": "[4]; MSSA isolate 1005, 24FEB06", "value": 0.25, "unit": "mg/L"}, {"measurement": "MIC", "setting": "[4]; MSSA isolate 1006, 24FEB06", "value": 0.5, "unit": "mg/L"}, {"measurement": "MIC", "setting": "[4]; MSSA isolate 1007, 24FEB06", "value": 0.5, "unit": "mg/L"}, {"measurement": "MIC", "setting": "[4]; MSSA isolate 1008, 24FEB06", "value": 0.5, "unit": "mg/L"}, {"measurement": "MIC", "setting": "[4]; MSSA isolate 1009, 24FEB06", "value": 0.5, "unit": "mg/L"}, {"measurement": "MIC", "setting": "[4]; MSSA isolate 1131, 24FEB06", "value": 0.5, "unit": "mg/L"}, {"measurement": "MIC", "setting": "[4]; MSSA isolate 1132, 03MAR06", "value": 0.5, "unit": "mg/L"}, {"measurement": "MIC", "setting": "[4]; MSSA isolate 1133, 24FEB06", "value": 0.5, "unit": "mg/L"}, {"measurement": "MIC", "setting": "[4]; MSSA isolate 1134, 24FEB06", "value": 0.5, "unit": "mg/L"}, {"measurement": "MIC", "setting": "[4]; MSSA isolate 1654, 03MAR06", "value": 0.5, "unit": "mg/L"}, {"measurement": "MIC", "setting": "[4]; MSSA isolate 1656, 03MAR06", "value": 0.5, "unit": "mg/L"}, {"measurement": "MIC", "setting": "[4]; MSSA isolate 1662, 03MAR06", "value": 0.5, "unit": "mg/L"}, {"measurement": "MIC", "setting": "[4]; MSSA isolate 1663, 03MAR06", "value": 1, "unit": "mg/L"}, {"measurement": "MIC", "setting": "[4]; MSSA isolate 1666, 03MAR06", "value": 0.5, "unit": "mg/L"}, {"measurement": "MIC", "setting": "[4]; MSSA isolate 1667, 03MAR06", "value": 1, "unit": "mg/L"}, {"measurement": "MIC", "setting": "[4]; MSSA isolate 1668, 03MAR06", "value": 0.5, "unit": "mg/L"}, {"measurement": "MIC", "setting": "[4]; MSSA isolate 1671, 03MAR06", "value": 0.5, "unit": "mg/L"}, {"measurement": "MIC", "setting": "[4]; MSSA isolate 1728, 03MAR06", "value": 0.25, "unit": "mg/L"}, {"measurement": "MIC", "setting": "[4]; MSSA isolate 1728, retest 09MAR06", "value": 0.25, "unit": "mg/L"}, {"measurement": "MIC50", "setting": "[4]; [7]", "value": 0.5, "unit": "mg/L"}, {"measurement": "MIC90", "setting": "[4]; [7]", "value": 0.5, "unit": "mg/L"}, {"measurement": "MIC Range", "setting": "[5]; 2 VISA isolates, combinations at 2.5:1, given as NB/partner", "value": ".25 to 2 mg/L"}, {"measurement": "MIC", "setting": "[5]; Staphylococcus aureus, VISA isolate 2012, 03MAR06", "value": 2, "unit": "mg/L"}, {"measurement": "MIC", "setting": "[5]; Staphylococcus aureus, VISA isolate 2018, 03MAR06", "value": 0.25, "unit": "mg/L"}, {"measurement": "MIC50", "setting": "[5]; Staphylococcus aureus, 2 VISA isolates, combinations at 2.5:1, given as NB/partner", "value": 0.25, "unit": "mg/L"}, {"measurement": "MIC Range", "setting": "[6]; 3 unconfirmed VISE isolates, combinations at 2.5:1", "value": "0.5 to 2", "unit": "mg/L"}, {"measurement": "MIC", "setting": "[6]; Staphylococcus epidermidis, Unconfirmed VISE isolate 2024, 09MAR06", "value": 2, "unit": "mg/L"}, {"measurement": "MIC", "setting": "[6]; Staphylococcus epidermidis, Unconfirmed VISE isolate 2025, 09MAR06", "value": 0.5, "unit": "mg/L"}, {"measurement": "MIC", "setting": "[6]; Staphylococcus epidermidis, Unconfirmed VISE isolate 2026, 03MAR06", "value": 2, "unit": "mg/L"}, {"measurement": "MIC50", "setting": "[6]; Staphylococcus epidermidis, 3 unconfirmed VISE isolates, combinations at 2.5:1", "value": 2, "unit": "mg/L"}]}]}
